The values below come from article PMC9250534, “Synthesis and direct assay of large macrocycle diversities by combinatorial late-stage modification at picomole scale” (Nature Communications, 2022).

In the assay the target is T1, thrombin (Homo sapiens, UniProt P00734).
T1 construct: consists of two polypeptide chains of 36 (light chain) and 259 amino acid
Briefly: Thrombin inhibition screen of crude macrocycle reactions (residual thrombin activity, fluorogenic substrate Z-Gly-Gly-Arg-AMC). Conditions: 10 µM macrocycle concentration; for percent residual thrombin activity: crude reactions, Library 1a-l, scaffold AA1-AA2-AA3 combined with 1-16 or '-'; for % thrombin activity, Original screen / % thrombin activity, Repeat screen: macrocycles containing acid 14, crude reaction; for % thrombin activity, Repeat screen: replicate reaction and screen. The assay is classed as biochemical. The method in brief: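 Each crude macrocycle (10 μM) was preincubated 10 min at room temperature with thrombin (2 nM final) in Tris-Cl pH 7.4 containing NaCl, MgCl2, CaCl2, 0.1% BSA, 0.01% Triton X-100 and 0.6% DMSO. Z-Gly-Gly-Arg-AMC (50 μM final) was then added. Inhibition came from fluorescence slopes relative to DMSO-only controls.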

Each structure is given as a SMILES string. Numbered stars: 1 amine (or outer) side, 2 acyl side, 3 side chain; on linkers, the order of the positions; unused ones are H or OH. Bridge positions count the residues as written; N and C are the ends. Square brackets hold non-standard residues; d marks the D form. Peptide text beside a SMILES is read from it. * marks the point of attachment. 1,2,3Thiadiazole5CO(4-Me) = Cc1nnsc1C(=O)*; Pyrazinecarbonyl = O=C(c1cnccn1)*; Phenoxyacetyl = O=C(COc1ccccc1)*; Cysteamide = C(CS[*:3])N[*:1]; 3Amb = NCc1cccc(C(=O)O)c1; 2Furoyl = O=C(c1ccco1)*; Mpa = O=C(O)CCS

As for `O=C1CCSSCCNC(=O)c2ccc(cc2)CNC(=O)[C@H](Cc2c[nH]c3ccccc23)NC(=O)[C@H](CCCNC(=O)c2ccc(Cl)s2)N1` [D2-W-B3/14], the “percent residual thrombin activity” value stood at 109.796%.
In the case of `CC[C@H](C)[C@@H]1NC(=O)CCSSCCNC(=O)[C@H]2CCCN(C2)C(=O)[C@H](CCCCN)NC1=O` [I-D1-B4/-], the “percent residual thrombin activity” value came to 114.483%.
`O=C1CCNC(=O)C2(CCN(C(=O)c3ccc(Cl)s3)CC2)NC(=O)[C@@H](Cc2ccccc2)NC(=O)CCSSCCN1` [X f D6 B2]: the “% thrombin activity, Original screen” value is recorded as 97.4% and the “% thrombin activity, Repeat screen” value is recorded as 95.6%.
With `O=C1CCSSCCNC(=O)[C@@H](CNC(=O)c2ccc(Cl)s2)NC(=O)[C@H](Cc2c[nH]c3ccccc23)NC(=O)CCN1` [X B2 W D4], the “% thrombin activity, Original screen” value is recorded as 61.5% and the “% thrombin activity, Repeat screen” value is on record as 68.8%.
For the molecule `O=C1NC2(CCN(C(=O)c3ccc(Cl)s3)CC2)C(=O)N[C@@H](CO)C(=O)NCCSSCCC(=O)N2CCC[C@H]1C2` [X B4 D6 S], the “% thrombin activity, Original screen” value came to 87.7% and the “% thrombin activity, Repeat screen” value is listed as 85.3%.
Regarding `Cc1cc(C(=O)NCCCC[C@@H]2NC(=O)CCNC(=O)[C@@H](CO)NC(=O)CCSSCCNC2=O)no1` [s-B2-D1/3], the “percent residual thrombin activity” value is reported as 111.495%.
As to `CC(C)[C@@H]1NC(=O)[C@H](CCCN)NC(=O)C2(CC2)CNC(=O)CCSSCCNC1=O` [B6-D2-V/-], the “percent residual thrombin activity” value is reported as 112.468%.
`O=C1CCSSCCNC(=O)C(Cc2ccccc2)NC(=O)C2CC(NC(=O)c3ccc(Cl)s3)CN2C(=O)c2cccc(c2)CN1` (stereo not shown) [X B5 D5 f]: the “% thrombin activity, Original screen” value is 91.3% and the “% thrombin activity, Repeat screen” value is listed as 95.8%.
Regarding `NC(=O)CC[C@@H]1NC(=O)[C@H](CNC(=O)c2ccc(Cl)s2)NC(=O)CCSSCCNC(=O)C2(CC2)CNC1=O` [X D3 Q B6], the “% thrombin activity, Original screen” value worked out at 72.8% and the “% thrombin activity, Repeat screen” value is 67.3%.
As for `COc1ccc(C(=O)NCCCC[C@@H]2NC(=O)CCSSCCNC(=O)[C@@H](Cc3ccc(O)cc3)NC(=O)CCNC2=O)cn1` [D1-B2-y/10], the “percent residual thrombin activity” value is on record as 108.421%.
Regarding `CC(C)[C@@H]1NC(=O)CCSSCCNC(=O)[C@@H]2CCCN2C(=O)[C@H](CCCCNC(=O)COc2ccccc2)NC1=O` [V-D1-B1/13] ([Mpa]VK(Phenoxyacetyl)P-Cysteamide; disulfide 1-C), the “percent residual thrombin activity” value is given as 111.167%.
Take `NC(=O)CC[C@@H]1NC(=O)c2cccc(c2)CNC(=O)CCSSCCNC(=O)[C@H](CNC(=O)c2ccc(Cl)s2)NC1=O` [X B5 Q D3]: the “% thrombin activity, Original screen” value is 95.3% and the “% thrombin activity, Repeat screen” value was found to be 96.2%.
For the molecule `NC(=O)CC[C@@H]1NC(=O)CCSSCCNC(=O)[C@H]2CCCN(C2)C(=O)[C@H](CCCCNC(=O)c2ccc(Cl)s2)NC1=O` [Q-D1-B4/14], the “percent residual thrombin activity” value was found to be 109.426%.
On to `NC(=O)CC[C@@H]1NC(=O)CCSSCCNC(=O)C2(CCN(C(=O)c3ccc(Cl)s3)CC2)NC(=O)c2ccc(cc2)CNC1=O` [X Q B3 D6], for which the “% thrombin activity, Original screen” value was 87.5% and the “% thrombin activity, Repeat screen” value came out at 88.0%.
For the molecule `O=C1CCNC(=O)[C@H](Cc2c[nH]cn2)NC(=O)CCSSCCNC(=O)[C@H](CCCNC(=O)c2c[nH]c(=O)[nH]c2=O)N1` [H-B2-D2/11], the “percent residual thrombin activity” value amounted to 112.021%.
Turning to `O=C1CCSSCCNC(=O)C2CC(NC(=O)c3ccc(Cl)s3)CN2C(=O)CCNC(=O)C(CO)N1` (stereo not shown) [X S B2 D5], the “% thrombin activity, Original screen” value amounted to 96.6% and the “% thrombin activity, Repeat screen” value is given as 90.6%.
Take `CC(C)CC(=O)NCCCC[C@@H]1NC(=O)CCSSCCNC(=O)C2(CC2)CNC(=O)[C@H](C(C)C)NC1=O` [D1-V-B6/8]: the “percent residual thrombin activity” value amounted to 110.303%.
Take `COc1ccc(C(=O)NCCC[C@@H]2NC(=O)C3(CC3)CNC(=O)CCSSCCNC(=O)[C@H](Cc3ccc(O)cc3)NC2=O)cn1` [B6-D2-Y/10]: the “percent residual thrombin activity” value is recorded as 102.307%.
`CC(C)C[C@@H]1NC(=O)CCSSCCNC(=O)[C@H](CCCCN)NC(=O)C2(CC2)CNC1=O` [L-B6-D1/-]: the “percent residual thrombin activity” value was determined as 103.319%.
In the case of `CC(C)CC1NC(=O)C2(CC2)CNC(=O)C2CC(NC(=O)c3ccc(Cl)s3)CN2C(=O)CCSSCCNC1=O` (stereo not shown) [X D5 B6 L], the “% thrombin activity, Original screen” value was determined as 114.0% and the “% thrombin activity, Repeat screen” value was 116.8%.
For `NC(=O)CCC1NC(=O)C2CC(NC(=O)c3ccc(Cl)s3)CN2C(=O)C2(CC2)CNC(=O)CCSSCCNC1=O` (stereo not shown) [X B6 D5 Q], in that order: 109.4% and 121.6%.
As to `O=C1CCSSCCNC(=O)[C@H](CCCCNC(=O)c2ccc(Cl)s2)NC(=O)C2(CC2)CNC(=O)[C@H](Cc2c[nH]c3ccccc23)N1` [W-B6-D1/14], the “percent residual thrombin activity” value turned out to be 81.7178%.
Turning to `C[C@H]1NC(=O)CCSSCCNC(=O)[C@H]2CCCN(C2)C(=O)[C@H](CCCCNC(=O)c2ccc(Cl)s2)NC1=O` [X a D1 B4], the “% thrombin activity, Original screen” value was 107.0% and the “% thrombin activity, Repeat screen” value is recorded as 109.1%.
With `C[C@H]1NC(=O)CCSSCCNC(=O)c2cccc(c2)CNC(=O)[C@H](CCCCN)NC1=O` [a-D1-B5/-] ([Mpa][dA]K[3Amb]-Cysteamide; disulfide 1-C), the “percent residual thrombin activity” value amounted to 108.99%.
For `NC(=O)CC[C@@H]1NC(=O)CCSSCCNC(=O)[C@H](CCCCNC(=O)c2cnccn2)NC(=O)C2(CC2)CNC1=O` [Q-B6-D1/2], the “percent residual thrombin activity” value came to 107.685%.
For the molecule `O=C1CCSSCCNC(=O)C(Cc2c[nH]c3ccccc23)NC(=O)C(CNC(=O)c2ccc(Cl)s2)NC(=O)C2(CC2)CN1` (stereo not shown) [X B6 D3 w], the “% thrombin activity, Original screen” value is recorded as 92.5% and the “% thrombin activity, Repeat screen” value is listed as 95.8%.
In the case of `Cc1nnsc1C(=O)NCCCC[C@@H]1NC(=O)CCSSCCNC(=O)[C@H](CO)NC(=O)c2ccc(cc2)CNC1=O` [D1-B3-S/15], the “percent residual thrombin activity” value is 103.115%.
In the case of `NC(=O)CCC1NC(=O)C2CC(NC(=O)c3ccc(Cl)s3)CN2C(=O)CCSSCCNC(=O)c2ccc(cc2)CNC1=O` (stereo not shown) [X D5 Q B3], the “% thrombin activity, Original screen” value was 94.5% and the “% thrombin activity, Repeat screen” value is 101.1%.
Take `CC(C)C1NC(=O)C(CCCCNC(=O)c2cnccn2)NC(=O)C2CCCN2C(=O)CCSSCCNC1=O` (stereo not shown) [B1-D1-v/2] ([Mpa]PK(Pyrazinecarbonyl)V-Cysteamide; disulfide 1-C; configuration not given here): the “percent residual thrombin activity” value stood at 115.134%.
As to `O=C1CCSSCCNC(=O)[C@@H](Cc2c[nH]c3ccccc23)NC(=O)[C@@H](CNC(=O)c2ccc(Cl)s2)NC(=O)CCN1` [X B2 D4 w], the “% thrombin activity, Original screen” value came to 88.8% and the “% thrombin activity, Repeat screen” value turned out to be 91.0%.
Taken in the same sequence, the figures for `CC(C)C[C@@H]1NC(=O)C2(CC2)CNC(=O)CCSSCCNC(=O)[C@H](CCCNC(=O)c2ccc(Cl)s2)NC1=O` [X B6 L D2] were 60.0% and 43.4%.
As to `O=C(NCCCC[C@@H]1NC(=O)[C@H](Cc2c[nH]c3ccccc23)NC(=O)[C@H]2CCCN(C2)C(=O)CCSSCCNC1=O)c1ccc(Cl)s1` [X B4 W D1], the “% thrombin activity, Original screen” value amounted to 84.9% and the “% thrombin activity, Repeat screen” value came to 86.6%. In addition, for the setting “listed as X B4 w D1”, the “% thrombin activity, Original screen” value was found to be 105.6% and the “% thrombin activity, Repeat screen” value amounted to 113.0%.
For `Cc1nnsc1C(=O)NCCCC[C@@H]1NC(=O)[C@H](CC(C)C)NC(=O)CCSSCCNC(=O)[C@@H]2CCCN2C1=O` [L-D1-B1/15] ([Mpa]LK(1,2,3Thiadiazole5CO(4-Me))P-Cysteamide; disulfide 1-C), the “percent residual thrombin activity” value is 110.815%.
With `C[C@H]1NC(=O)CCSSCCNC(=O)[C@H](CCCCNC(=O)c2ccco2)NC(=O)[C@@H]2CCCN2C1=O` [a-B1-D1/16] ([Mpa][dA]PK(2Furoyl)-Cysteamide; disulfide 1-C), the “percent residual thrombin activity” value turned out to be 111.353%.
On the same count and under the same terms, the result for `C[C@H]1NC(=O)CCSSCCNC(=O)[C@H](CCCCN)NC(=O)CCNC1=O` [a-B2-D1/-] reads 105.008%.
`O=C1CCSSCCNC(=O)[C@H]2CCCN(C2)C(=O)[C@H](CCCCNC(=O)c2ccc(Cl)s2)NC(=O)[C@H](Cc2ccc(O)cc2)N1` [Y-D1-B4/14]: the “percent residual thrombin activity” value is 97.8547%.
For the molecule `O=C1CCSSCCNC(=O)[C@H](Cc2c[nH]c3ccccc23)NC(=O)[C@H](CCCNC(=O)c2c[nH]c(=O)[nH]c2=O)NC(=O)C2(CC2)CN1` [B6-D2-W/11], the “percent residual thrombin activity” value was determined as 94.9215%.
Turning to `CC[C@H](C)[C@@H]1NC(=O)[C@H](CCCNC(=O)c2ccc(Cl)s2)NC(=O)CCSSCCNC(=O)CCNC1=O` [D2-I-B2/14], the “percent residual thrombin activity” value is 94.0704%.
For `CC[C@H](C)[C@@H]1NC(=O)[C@H](CCCNC(=O)c2ccc(Cl)s2)NC(=O)c2cccc(c2)CNC(=O)CCSSCCNC1=O` [X B5 D2 I], the “% thrombin activity, Original screen” value came out at 86.0% and the “% thrombin activity, Repeat screen” value was found to be 83.0%.
In the case of `CC[C@H](C)[C@@H]1NC(=O)CCNC(=O)[C@H](CCCNC(=O)c2ccc(OC)nc2)NC(=O)CCSSCCNC1=O` [D2-B2-I/10], the “percent residual thrombin activity” value is recorded as 104.624%.
As for `NC(=O)CC[C@@H]1NC(=O)CCSSCCNC(=O)[C@H](CCCCNC(=O)Cc2c[nH]c3ccccc23)NC(=O)C2(CC2)CNC1=O` [Q-B6-D1/12], the “percent residual thrombin activity” value is 103.639%.
As to `O=C1CCSSCCNC(=O)[C@H](CCCCNC(=O)c2ccc(Cl)s2)NC(=O)[C@H](Cc2c[nH]cn2)NC(=O)c2ccc(cc2)CN1` [B3-H-D1/14], the “percent residual thrombin activity” value is listed as 102.666%.
